Biological target: T1, rhCRTh2 (Homo sapiens, UniProt Q9Y5Y4)
T1 construct: expressed in transfected cells; host or cells: HEK cells (membrane preparation)
T1 sequence (Q9Y5Y4 1-395): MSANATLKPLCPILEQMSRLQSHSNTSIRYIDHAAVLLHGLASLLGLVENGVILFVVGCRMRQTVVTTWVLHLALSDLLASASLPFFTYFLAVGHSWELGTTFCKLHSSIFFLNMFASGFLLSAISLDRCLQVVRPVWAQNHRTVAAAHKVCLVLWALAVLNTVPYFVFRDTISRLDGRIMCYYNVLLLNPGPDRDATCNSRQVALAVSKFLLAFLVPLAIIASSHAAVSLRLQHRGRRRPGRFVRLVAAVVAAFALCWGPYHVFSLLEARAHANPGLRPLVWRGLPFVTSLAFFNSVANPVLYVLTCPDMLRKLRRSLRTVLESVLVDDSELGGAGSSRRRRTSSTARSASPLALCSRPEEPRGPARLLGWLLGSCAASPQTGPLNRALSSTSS
Test: Ligand Binding Assay ([3H]PGD2 SPA on HEK cell membranes)
Conditions: [3H]PGD2 displacement, HEK cell membranes expressing rhCRTh2/Gα16, SPA beads
Method: [^3H]PGD2 was purchased from Perkin Elmer Life Sciences with a specific activity of 100-210 Ci/mmol. All other chemicals were of analytical grade.
HEK cells expressing rhCRTh2/Gα16 were routinely maintained in DMEM containing 10% Foetal Bovine Serum (HyClone), 1 mg/ml geneticin, 2 mM L-glutamine and 1% non-essential amino acids. For the preparation of membranes, the adherent transfected HEKcells were grown to confluence in two layer tissue culture factories (Fisher, catalogue number TKT-170-070E). Maximal levels of receptor expression were induced by addition of […] sodium butyrate for the last 18 hours of culture. […] The final pellet was re-suspended in 4 ml of membrane homogenisation buffer per cell factory used and the protein content determined. […]
All assays were performed in Corning clear bottomed, white 96-well NBS plates (Fisher). […] (The optimum coating concentrations were determined for each batch of membranes) The beads were pelleted by centrifugation (800×g for 7 minutes at 4° C.), washed once with assay buffer (50 mM HEPES pH 7.4 containing 5 mM magnesium chloride) and finally re-suspended in assay buffer at a bead concentration of 10 mg/ml. […]

IC50 [nM]	SMILES
251	CCS(=O)(=O)c1ccc(-c2cc(OC)ccc2OCC(=O)O)cc1 [Example 3, {[4′-(Ethylsulfonyl)-5-methoxybiphenyl-2-yl]oxy}acetic acid]
79.4	CCc1ccc(OCC(=O)O)c(-c2ccc(S(C)(=O)=O)cc2)c1 [Example 2, {[5-Ethyl-4′-(methylsulfonyl)biphenyl-2-yl]oxy}acetic acid]

— patent US20060211765A1, “Novel compounds” (ASTRAZENECA AB, priority 2003, published 2006)
